Test [1] deals with model mice of hyperglycemia (KKAy mice). The test can be described thus: Blood sugar level of model mice of hyperglycemia bred five days on PT- or PD-containing high fat diet. The note with it: for Blood sugar level (post-breeding): after five days; for Blood sugar level (initial value): before breeding. The class given is in vivo, mouse. The source says: Panaxatriol (PT) (product of LKT Laboratories, Inc.) was mixed with a commercially available high fat diet (trade name: Quick Fat, product of CLEA Japan, Inc.) in amounts shown in the following Table 1. Each of the thus-prepared feeds was given ad libitum to model mice of hyperglycemia (KKAy mice (product of CLEA Japan, Inc.), eight weeks old, 5 mice/group) to breed them for five days (hereinafter these groups may be referred to as “PT-containing group”). Mice of a control group were given a panaxatriol (PT)-free feed (hereinafter this group may be referred to as “PT-free group”). The blood sugar level was measured at 10 a.m. before breeding of the panaxatriol (PT)-containing high fat diet (initial value) and after breeding thereof (post-breeding). […] GB SENSOR (product of Sanko Junyaku Co., Ltd.) was used for the measurement of the blood sugar level. The values shown in the following Table 1 are calculated on the basis of the average value of two values obtained by measuring each individual twice for the postprandial blood sugar level. […] Panaxadiol (PD) (product of LKT Laboratories, Inc.) was mixed with a commercially available high fat diet (trade name: Quick Fat, product of CLEA Japan, Inc.) in amounts shown in the following Table 2. Each of the thus-prepared feeds was given ad libitum to model mice of hyperglycemia (KKAy mice (product of CLEA Japan, Inc.), eight weeks old, 5 mice/group) to breed them for five days (hereinafter these groups may be referred to as “PD-containing group”). Mice of a control group were given a panaxadiol (PD)-free feed (hereinafter this group may be referred to as “PD-free group”). The blood sugar level was measured at 10 a.m. before breeding of the panaxadiol (PD)-containing high fat diet (initial value) and after breeding thereof (post-breeding). […] GB SENSOR (product of Sanko Junyaku Co., Ltd.) was used for the measurement of the blood sugar level. The values shown in the following Table 2 are calculated on the basis of the average value of two values obtained by measuring each individual twice for the postprandial blood sugar level.

In test [2] the test system is model mice of hyperglycemia (KKAy mouse). The test can be described thus: Blood sugar level of KKAy mice after one-week main breeding on high fat diet containing PT or PD. The class given is in vivo. The note with it: 0.1% by mass in high fat diet (control group 335.4 mg/dL). The procedure: Twenty-four model mice of hyperglycemia (KKAy mouse (product of CLEA Japan, Inc.), male, four weeks old) were preliminarily bred for one week in individual cages under the following conditions: temperature: room temperature (22° C.±1° C.), humidity: 50%±5%, and light-dark cycle: 12 hours. Eight grams per day of CE-2 (product of CLEA Japan, Inc.) was given to each mouse as feed during the preliminary breeding, while water was given ad libitum. After completion of the preliminary breeding, the mice were measured for body weight and blood sugar level. Then, they were divided into three groups, each containing eight mice, so that the body weights and blood sugar levels were averaged in the three groups, followed by main breeding in a manner described below. […] GB SENSOR (product of Sanko Junyaku Co., Ltd.) using the whole blood sampled from the tale vein of the mouse. The mice of one group were subjected to main breeding for one week under the conditions that eight grams per day of a commercially available high fat diet (trade name: Quick Fat, product of CLEA Japan, Inc.) was given to each mouse while water was given ad libitum. […] Hereinafter, this group may be referred to as “PD-administered group.” After the one-week main breeding, the mice were measured for blood sugar level and body weight, and then were subjected to measurement of the amount of ^13CO2 excreted.

The mark [3] stands for this setting: 0.0001% by mass in high fat diet ad libitum.
Where [4] appears, read: 0.001% by mass in high fat diet ad libitum.
[5] abbreviates: 0.01% by mass in high fat diet ad libitum.
Setting [6] is: group 0.0001% by mass in high fat diet.
The mark [7] stands for this setting: group 0.001% by mass in high fat diet.
Where [8] appears, read: group 0.01% by mass in high fat diet.

The structures appear in SMILES notation.

The values below come from patent US20120116069A1, “GLUCOSE METABOLISM-IMPROVING AGENT AND GLUCOSE METABOLISM-IMPROVING COMPOSITION” (LION CORPORATION, priority 2009, published 2012).

Take `CC1(C)CCC[C@](C)([C@H]2CC[C@]3(C)[C@@H]2[C@H](O)C[C@@H]2[C@@]4(C)CC[C@H](O)C(C)(C)[C@@H]4CC[C@]23C)O1` [PD, panaxadiol]: the “Blood sugar level (post-breeding)” value is 404 ± 17 mg/dL in test [1] (setting [3]), 323 ± 56 mg/dL in test [1] (setting [4]) and 274 ± 34 mg/dL in test [1] (setting [5]). Moreover, the “Blood sugar level (initial value)” value worked out at 454 ± 38 mg/dL in test [1] (setting [6]), 451 ± 34 mg/dL in test [1] (setting [7]) and 454 ± 32 mg/dL in test [1] (setting [8]). Moreover, the blood sugar level in test [2] was found to be 231.6 mg/dL.

For the molecule `CC1(C)CCC[C@](C)([C@H]2CC[C@]3(C)[C@@H]2[C@H](O)C[C@@H]2[C@@]4(C)CC[C@H](O)C(C)(C)[C@@H]4[C@@H](O)C[C@]23C)O1` [PT, panaxatriol], the figures for the “Blood sugar level (post-breeding)” value in test [1] (setting [3]), in test [1] (setting [4]) and in test [1] (setting [5]) were 401 ± 15 mg/dL, 318 ± 58 mg/dL and 265 ± 39 mg/dL, respectively. Also, the “Blood sugar level (initial value)” value in test [1] (setting [6]) is 455 ± 39 mg/dL; in test [1] (setting [7]), 451 ± 34 mg/dL; in test [1] (setting [8]) it was 451 ± 38 mg/dL. The blood sugar level in test [2] came to 199.3 mg/dL.
